Test results from US6133323A, “Process for enhancing immune response in animals using β-carotene as a dietary supplement” (priority 1998, dated 2000).
Read-outs that look alike come from different tables or passages of the source. Values belong to the molecule of their own block, whether it stands above or below them.

Experiments:
lymphocyte blastogenesis = experiment: Mitogen-induced lymphocyte blastogenesis (lymphocyte proliferation); format: in vivo, female Beagles (dogs); details: dog, β-carotene feeding
Method: (§1) Female Beagles (4 to 5 mo old) were supplemented daily with 0, 25, 50 or 100 mg of β-carotene to study the role of dietary β-carotene in enhancing the cell-mediated and humoral immune systems of the dog. The following parameters were assessed in all the animals or in the peripheral blood lymphocytes: (1) delayed-type hypersensitivity (DTH) against PHA (nonspecific immunity) and vaccine (specific immunity), (2) lymphocyte proliferation, (3) lymphocyte populations and (4) immunoglobulins (Ig).

[1] = pigs and rodents; cited from earlier work
in vivo [2] = details: dog, po
[3] = dog, in vivo
[4] = system: subcellular fractions of blood lymphocytes; design: species or system female Beagle dogs; details: dog, in vivo
Method: (§2) All procedures were conducted under dim light. Duplicate aliquots of plasma, each leukocyte homogenate, and each leukocyte subcellular fraction were extracted with a 1:1 mixture of diethyl ether and petroleum ether in the presence of BHT. The ether phase was removed and dried under a stream of nitrogen.
(§3) This example was designed to study the uptake of β-carotene in dogs by blood lymphocytes. The dogs (n=8/treatment) were fed 0, 50 or 100 mg of β-carotene daily for 30 days. Blood was sampled from all dogs via the jugular vein on days 10, 20 and 30. Blood lymphocytes and neutrophils were separated by density gradient centrifugation. Cell numbers were enumerated. Lymphocytes and neutrophils were resuspended in PBS containing 3% sodium ascorbate as an antioxidant. An aliquot of the cell suspension was sonicated for 30 seconds to disrupt the cells. The leukocyte homogenates were extracted for HPLC analysis of β-carotene.
(§4) On day 30, a larger aliquot of blood was taken and leukocyte suspensions prepared as described above for subsequent subcellular fractionation. Cells were disrupted by sonication for 20 seconds in 5 volumes of 0.25 M sucrose. Sodium ascorbate was added as the antioxidant. The homogenate was centrifuged (600×g for 10 min at 4° C.) and the nuclear pellet separated from the supernatant. The postnuclear supernatant was centrifuged (17,300×g for 20 min at 4° C.) to separate the mitochondrial fraction. The postmitochondrial supernatant was centrifuged (102,000×g for 60 min at 4° C.) to separate the microsomal from the cytosolic fraction. Each subcellular fraction was analyzed for β-carotene content by HPLC.

[5] = system: subcellular fractions of blood neutrophils; design: species or system female Beagle dogs; details: dog, in vivo
Method: as §2, §3, §4

CD8 cells = experiment: Lymphocyte populations (CD8 cells); format: in vivo, female Beagles (dogs); details: dog, 20 mg daily, weeks 2 and 4
Method: (§5) The following parameters were assessed in all the animals or in the peripheral blood lymphocytes: (1) delayed-type hypersensitivity (DTH) against PHA (nonspecific immunity) and vaccine (specific immunity), (2) lymphocyte proliferation, (3) lymphocyte populations and (4) immunoglobulins (Ig).

DTH response to vaccine = experiment: Delayed-type hypersensitivity (DTH) against vaccine (specific immunity); format: in vivo, female Beagles (dogs); details: dog, 20 or 50 mg β-carotene daily, 7 weeks
Method: as §5

[6] = cited from earlier work
[7] = format: in vivo, female Beagles (dogs); details: dog, daily supplementation
Method: as §1

DTH response to PHA = experiment: Delayed-type hypersensitivity (DTH) against PHA (nonspecific immunity); format: in vivo, female Beagles (dogs); details: dog, 50 mg β-carotene daily, 7 weeks
Method: as §1

[8] = system: immunoglobulins (IgG, IgM, total IgG); experiment: Plasma immunoglobulins (Ig); format: in vivo, female Beagles (dogs); details: dog
Method: as §5

[9] = design: species or system female Beagle dogs; details: dog, in vivo
Method: (§6) Female Beagle dogs (18 to 19 months of age; 7 to 9 kg body weight) were used in Examples 1-3 and were fed a basal diet (The lams Co., Lewisburg, Ohio.) which met or exceeded the requirement for all essential nutrients. Animals were housed indoors in light--(14 hr light; 10 hr dark) and temperature-controlled rooms.
as §2
In this Example, the dogs (n=6/treatment) were fed daily at 0800 hr for 7 consecutive days with 0, 12.5, 25, 50 or 100 mg β-carotene. The β-carotene was top-dressed on the food and fed in the morning meal. Blood was sampled once daily on day 0 (immediately prior to the first dose) and subsequently at 6 hr after each dosing (days 1 through 7). […] Plasma was isolated and analyzed for concentrations of β-carotene.

[10] = system: subcellular lymphocyte fractions; design: species or system female short hair Tabby cats; details: in vivo
Method: (§7) Mature female short hair Tabby cats (7 to 8 months of age; 1.5 to 2.0 kg body weight) were used for Examples 4-6and were fed a basal diet (The lams Co., Lewisburg, Ohio.) which met or exceeded the requirement for all essential nutrients. Animals were group-housed indoors in light- and temperature-controlled rooms.
(§8) This example studied the uptake of β-carotene by blood lymphocytes in cats. The cats (n=8/treatment) were fed 0, 5 or 10 mg of β-carotene daily for 14 days. Blood was sampled on days 7 and 14 with the aid of a blood collection vacutainer set (Becton Dickenson, Franklin Lakes, N.J.) in sedated animals (10 mg ketamine and 0.1 mg of acepromazine/kg body weight). Blood lymphocytes and neutrophils were separated by density gradient centrifugation. Cell numbers were enumerated. Lymphocytes were resuspended in PBS containing 3% sodium ascorbate as an antioxidant. An aliquot of the cell suspension was sonicated for 30 seconds to disrupt the cells. The lymphocyte homogenate was extracted for the HPLC analysis of β-carotene. Adequate numbers of neutrophils could not be obtained; therefore, no data are available in quantitating the uptake of β-carotene by circulating neutrophils.
A larger aliquot was used to prepare subcellular lymphocyte fractions. Lymphocytes were disrupted by sonication for 20 seconds in 5 volumes of 0.25 M sucrose. Sodium ascorbate was added as the antioxidant. The homogenate was centrifuged (600×g for 10 min at 4° C.) and the crude nuclear pellet separated from the supernatant. The postnuclear supernatant obtained earlier was centrifuged (7,300×g for 20 min at 4° C.) to separate the mitochondrial fraction. The postmitochondrial supernatant was centrifuged (102,000×g for 60 min at 4° C.) to separate the microsomal from the cytosolic fraction. Each subcellular fraction was analyzed for β-carotene content by HPLC.

in vivo [11] = experiment: in vivo; design: species or system female short hair Tabby cats
Method: as §7
In this Example, the cats (n=6/treatment) were dosed daily at 0800 hr for 6 consecutive days with 0, 1, 2, 5 or 10 mg β-carotene. Blood was sampled once daily on day 0 (immediately prior to the first dose) and subsequently at 12 hr after each dosing (days 1 through 6). This blood sampling time was chosen based on the results obtained in Example 5. Plasma was isolated and analyzed for concentrations of β-carotene.

CD4+ cells = experiment: Lymphocyte populations (CD4+ cells); format: in vivo, female Beagles (dogs); details: dog, 20 or 50 mg daily, wk 8
Method: as §5

[12] = Blood uptake of β-carotene in dogs after a single oral dose (plasma, HPLC); details: dog
IL-2 = IL-2 production; format: in vivo, female Beagles (dogs); details: dog, β-carotene feeding
[13] = system: peripheral blood lymphocytes; design: species or system female short hair Tabby cats; details: in vivo
Method: as §7, §8

in vivo [14] = experiment: in vivo; design: species or system female short hair Tabby cats; details: po
Method: as §7
To study the uptake of oral β-carotene in cats given a single dose of β-carotene orally, cats (n=6/treatment) were given once perorally 0, 10, 20 or 50 mg of β-carotene (10% cold water dissolvable; BASF Corp., Ludwigshafen, Germany). The appropriate dose of β-carotene was dissolved in 0.6 ml of water and fed orally by using a feeding syringe. […] These cats were fed once with 50 mg β-carotene and blood sampled at 0 (immediately prior to β-carotene feeding), 3, 6, 10, 16, 24, 30 and 36 hr.
The results from this example are illustrated in FIG. 14 and show peak concentrations of β-carotene generally occurring between 10 and 16 hr post-dosing. Subsequently, blood was sampled from the remaining cats at 0, 12, 24, 30, 36, 42, 48 and 72 hr after dosing. Plasma was similarly separated and analyzed.

blood neutrophils = system: blood neutrophils; design: species or system female Beagle dogs; details: dog, in vivo
Method: as §6, §2, §3

blood lymphocytes = system: blood lymphocytes; design: species or system female Beagle dogs; details: dog, in vivo
Method: as §6, §2, §3

Tmax (in vivo [2]): 3 to 6 h
half-life (in vivo [2]; half-life of plasma β-carotene): ~3 h
plasma β-carotene of dogs lower than that observed in cats [3]: 10-16 fold
time of peak blood β-carotene, dogs compared with cats [3]: occurred earlier in dogs than in cats
half-life of plasma β-carotene ([3]; po): ~4 h
share of total lymphocyte β-carotene in the cytosol [4]: 52-62%
share of total lymphocyte β-carotene in the microsomes [4]: 16-23%
share of total lymphocyte β-carotene in the mitochondria [4]: 14-17%
share of total lymphocyte β-carotene in the nuclei [4]: 6-8%
β-carotene in lymphocyte subcellular fractions of dogs compared with cats [4]: substantially lower
dose effect on β-carotene uptake by neutrophil subcellular fractions [5]: No significant dose effect
β-carotene in nuclei of blood neutrophils [5]: not detected
increase in daily concentrations of plasma β-carotene, 100 mg vs other doses [9]: steepest increase
plasma β-carotene after the last dose relative to after the first dose [9]: 2.5-4 fold
accumulation of β-carotene in all fractions, day 14 vs day 7 [10]: no additional accumulation
concentrations of β-carotene in lymphocyte fractions, 10 mg vs 5 mg [10]: did not have higher concentrations
influence of dose or length of supplementation on relative β-carotene profiles in lymphocyte fractions [10]: generally were not influenced
relative proportion of β-carotene in the microsomes of lymphocytes [10]: 20-35%
β-carotene uptake in the nuclei compared to unsupplemented controls [10]: significant
increase in daily changes in plasma β-carotene, 10 mg vs other doses (in vivo [11]): steepest increase
plasma β-carotene after the last dose relative to after one dose (in vivo [11]): 1.5-2 fold
concentration at 12 h (in vivo [11]; cat, po): 192 ± 58 ng/mL
Tmax [12]: 6 h
accumulation of β-carotene in lymphocytes, 10 mg vs 5 mg [13]: did not have higher accumulation
day of maximal uptake of dietary β-carotene by lymphocytes [13]: ≤ 7 days
uptake of β-carotene by blood lymphocytes on day 14 [13]: no additional increases
β-carotene in peripheral blood lymphocytes on day 0 [13]: undetectable
half-life of plasma β-carotene (in vivo [14]; cat): about 24 hr
half-life (in vivo [14]; cat, half-life of plasma β-carotene): 12 to 18 h
Tmax (in vivo [14]; cat, time of peak concentrations of plasma β-carotene): 12 h
Tmax (in vivo [14]; cat, time of peak concentrations of β-carotene (post-dosing)): 10 to 16 h
plasma β-carotene concentration, 50 mg vs other doses (in vivo [14]): highest (P<0.01)
neutrophil β-carotene concentrations on day 30 (blood neutrophils): no further increase
treatment difference in β-carotene concentrations in lymphocytes, 50 versus 100 mg (blood lymphocytes): no significant treatment difference
β-carotene in lymphocytes of dogs lower than that observed in cats (blood lymphocytes): 20-30 fold
β-carotene in peripheral blood lymphocytes on day 0 (blood lymphocytes): undetectable
Molecule: CC1=C(/C=C/C(C)=C/C=C/C(C)=C/C=C/C=C(C)/C=C/C=C(C)/C=C/C2=C(C)CCCC2(C)C)C(C)(C)CCC1 [β-carotene]
mitogen-induced lymphocyte blastogenesis (lymphocyte blastogenesis): did not influence
concentrations of β-carotene [1]: very low concentrations
population of CD8 cells (CD8 cells): elevated population
DTH response to vaccine (DTH response to vaccine): significantly higher DTH response
β-carotene in the liver and milk of dogs ([6]; earlier studies): only trace amounts
β-carotene in the circulating blood and organs of dogs ([6]; some studies): low to undetectable amounts
effect on plasma retinol [7]: did not influence
effect on plasma α-tocopherol [7]: did not influence
DTH response to PHA (DTH response to PHA): greatest response
dose dependence of Ig increases ([8]; 0 to 20 mg): dose dependent
antibody response for both Ig at 20 mg ([8]; 20 mg daily): greatest antibody response
Ig response at the highest level (50 mg) ([8]; 50 mg daily): did not produce a further increase
concentrations of IgG, IgM and total IgG ([8]; as early as 1 wk after dietary supplementation): increased significantly
population of CD4+ cells compared to controls (CD4+ cells): elevated population
IL-2 production (IL-2): did not influence

Molecule: carotene
carotene in the blood, liver and milk of dogs ([6]; dog, in vivo): trace amounts, if any
